Consider four compounds from paper PMC10414583, “Structures of SARS-CoV-2 N7-methyltransferase with DOT1L and PRMT7 inhibitors provide a platform for new antivirals” (PLOS Pathogens, 2023).

Structures are written as SMILES.

What is called Kd is the free concentration of one partner at which half of the binding sites on the other are occupied at equilibrium, for simple one-to-one binding. Low readings indicate tighter binding, high ones weaker binding.

This experiment concerns the target T1, SARS-CoV-2 nsp14/nsp10 complex (Severe acute respiratory syndrome coronavirus 2, UniProt P0DTD1).
T1 construct: gene rep; full-length mature nsp14 and nsp10 cut from replicase polyprotein 1ab; co-expressed from one pRSF-Duet-1 plasmid in E. coli BL21Gold (DE3), C-terminal 6xHis; with Non-structural protein 10
The experiment is described as follows: biochemical. In kind it is binding.
Compound `Nc1nc2c(ncn2[C@@H]2O[C@H](COP(=O)(O)OP(=O)(O)OP(=O)(O)OC[C@H]3O[C@@H](n4cnc5c(N)ncnc54)[C@H](O)[C@@H]3O)[C@@H](O)[C@H]2O)c(=O)[nH]1` [GpppA RNA cap analog] came in with a Kd of 20 µM.
`C[S+](CC[C@H](N)C(=O)O)C[C@H]1O[C@@H](n2cnc3c(N)ncnc32)[C@H](O)[C@@H]1O` (stereo partly shown) [SAM] registered a Kd of around 6 µM.
Compound `CC(C)N(CCCNC(=O)Nc1ccc(C(C)(C)C)cc1)C[C@H]1O[C@@H](n2cc(Br)c3c(N)ncnc32)[C@H](O)[C@@H]1O` [SGC0946] came in with a dissociation constant Kd of around 8 µM.
As to `Nc1ncnc2c1ncn2[C@@H]1O[C@H](CSCCCCNCc2cccc(-c3ccc(Cl)cc3)c2)[C@@H](O)[C@H]1O` [SGC8158], the Kd was around 6 µM.
